According to the METLIN SMRT retention time set (Domingo-Almenara et al. 2019):

Assay: gradient 5% acetonitrile 3 min, to 50% in 2 min, to 85% in 15 min, held 3 min, 100 µL/min
Details: column: Zorbax Extend-C18 2.1 x 50 mm; eluents: water / acetonitrile, 0.1% formic acid
How it was run: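 Using water and acetonitrile that each contained 0.1% formic acid, mixtures of ~100 pure standards were separated at 100 μL/min on a Zorbax Extend-C18 column (2.1 × 50 mm, 1.8 μm). The HPLC fed a quadrupole time-of-flight mass spectrometer working in positive and negative ionization mode, with dead and dwell volumes of 40 μL and 900 μL. Data were acquired over 3 months. Retention time was read from computationally picked adduct peaks after manual inspection of each.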

SMILES | RP-LC retention time [s]
CCOC(=O)c1c(S(=O)(=O)N2CCC(C(=O)Nc3cc(C)cc(C)c3)CC2)c(C)n(C)c1C | 942
Cc1ccc(Cl)cc1N1CCN(C(=O)c2csc(C(=O)NC3CC3)n2)CC1 | 972
Cc1ccc(C(=O)N2CC=C(C(=O)NC3CC3)CC2)cc1 | 847
CCOc1ccc(N2CC(CNC(=O)Nc3cc(OC)c(OC)c(OC)c3)CC2=O)cc1 (stereo not given) | 668
CCCc1ccc(S(=O)(=O)N2CCC(n3cnnc3C)CC2)cc1 | 767
Cc1cccc(CC(=O)N2C[C@@H]3C[C@H](NS(C)(=O)=O)[C@H]2C3)c1 | 662
COc1ccc(C(=O)NC2(c3nc(-c4ccncc4)no3)CCCCC2)cc1OC | 827
Cc1cc2cc3n(c2nn1)N=C(Cl)CC3 | 610
Cc1ccc(C)c(N2CCN(c3ccnc(SCC(=O)Nc4ccc(Cl)cc4)n3)CC2)c1 | 967
CCN1CCn2c(nc3cc(C(=O)NCc4ccc5c(c4)OCO5)ccc32)C1=O | 660
CC(C)CN1CCn2cc(C(=O)N3CCN(c4ccc(F)cc4)CC3)nc2C1 | 613
O=C(N[C@H]1C[C@@H]2C[C@H]1N(C(=O)COc1cccc(Cl)c1)C2)c1ccccc1 | 829
O=C([C@@H]1C[C@H](F)CN1S(=O)(=O)Cc1ccccc1Cl)N1CCc2ccccc2C1 | 986
Cc1cc(-c2c(C)sc(C)c2S(=O)(=O)Nc2ccc(C)c(C)c2)n[nH]1 | 1090
O=C(c1cc2ccccc2[nH]1)N1CCN(c2cc(-c3cccnc3)[nH]n2)CC1 | 630
CCn1cc(C(=O)N2CCC3(CCC3O)CC2)cn1 (stereo not given) | 598
COCCN(CC1(C)CCOCC1)C(=O)c1ccc(Cl)cc1 | 838
COc1cccc(CNC(=O)C2(C)CCCN(C(=O)Nc3ccc(OC)c(OC)c3)C2)c1 (stereo not given) | 746
COc1ccccc1N1CCN(CC(=O)NC2CCSC2=O)C1=O (stereo not given) | 621
COCCN1C(=O)c2cccn2CC1CNS(=O)(=O)c1ccc2c(c1)C(C)(C)C(=O)N2 (stereo not given) | 652
CCN1C(=O)CN(C(=O)C2CCCCC2)CC12CCOCC2 | 654
Cc1csc(NC(=O)Cn2nc3c(cc2=O)CCCC3)n1 | 683

Continued, values first:

RP-LC retention time [s] | SMILES
872 | COc1ccc(-c2ccnc3nc(-c4ccccc4OC)nn23)c(F)c1
861 | Cc1nnc(-c2ccc3ccn(CC(=O)Nc4ccc(F)c(Cl)c4)c3c2)o1
907 | O=C(NCCOc1cccc(C(F)(F)F)c1)c1ccccc1Cl
958 | COc1ccc(CNC(=O)c2sc(-c3cn(C)c4ncccc34)nc2C)cc1
1050 | COC(=O)c1ccccc1NC1=NS(=O)(=O)C(c2ccc(F)cc2)=C1C
1120 | COc1ccc(Cl)cc1NC(=O)N1CCC(COCc2ccccc2)CC1
835 | COc1ccccc1C(=O)N1CCC2(CC1)OCCN2S(=O)(=O)c1ccc(F)c(C)c1
1050 | CCOC(=O)c1sc(NC(=O)COc2ccccc2Br)nc1C
674 | Cc1ccc(Cl)cc1NC(=O)Cn1c(=O)cnc2cc(C(=O)NC3CC3)ccc21
987 | CC1=NS(=O)(=O)N(C)C=C1C(=O)OCc1nc(Cc2ccccc2C)no1
762 | Cc1ccc(CCNC(=O)C2CCCN(c3nnc(C)c4c(C)n(-c5ccccc5)nc34)C2)cc1 (stereo not given)
838 | O=c1ccn(-c2ccc(F)cc2)nc1-c1nc(-c2ccccc2F)no1
915 | Cc1cc(N2CCC(NC(=O)Nc3ccccc3C(F)(F)F)C2=O)ccc1F (stereo not given)
649 | Cc1nnc(CNC(=O)c2cc(-c3ccc(F)cc3)c[nH]2)o1
623 | NC(=O)c1cc(-c2ccccc2)n[nH]1
798 | COc1ccc(NC(=O)Cn2c(=O)c(CCC(=O)NCC(C)C)nc3ccccc32)cc1
1300 | CCOc1ccccc1NC(=O)c1cn(-c2cc(N3CCC(C)CC3)ncn2)cn1
662 | Cc1ccc2nc(C)c(NC(=O)CSCc3ccccc3)c(=O)n2c1
580 | CN(C)CCCn1c(C2CC(=O)N(c3ccccc3F)C2)nc2ccccc21 (stereo not given)
612 | CC1CCCCN1CCNC(=O)Cn1c(=O)c2cccn2c2ccc(F)cc21 (stereo not given)
1100 | CCCN1C(=O)c2cc(S(=O)(=O)Nc3ccc(F)cc3C)ccc2Oc2cccnc21
756 | COc1ccc(NC(=O)CSc2nc(N3CCCCC3)nc3ccccc23)cc1Cl
634 | CN(CC(=O)Nc1ccc(F)cc1)C(=O)C1CCN(c2cnn(C)c(=O)c2)C1 (stereo not given)
